Measured values published in patent publication US20240246941A1, “SUBSTITUTED 4-(3-AMINOPROP-1-YL)AMINOQUINOLINE ANALOGS AS MODULATORS OF MELANOMA-ASSOCIATED ANTIGEN 11 UBIQUITIN LIGASE” (ST. JUDE CHILDREN'S RESEARCH HOSPITAL, INC., priority 2020, published 2024).

Molecular target: MAGE-A11:PCF11 (Homo sapiens (Human), UniProt P43364)
Assay: TR-FRET single point screening at 15 μM
Type: binding
Parameters: unit not given here
Outline: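 Competition TR-FRET: compounds at final 15 μM mixed with 200 nM FAM-PCF11_4, 5 nM GST-MAGEA11 and 5 nM Tb-anti-GST in Tris pH 7.5/MgCl2/BSA/DTT buffer, room temperature, 90 min. Emission ratio 520/490 nm (340 nm excitation) expressed as % inhibition relative to positive and negative controls.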

[1] = single point TR-FRET screening at 15 μM against MAGE-A11:PCF11
[2] = single point TR-FRET screening of quinoline compounds against MAGE-A11:PCF11, 15 μM

Sequence of MAGE-A11:PCF11 (P43364 218-429): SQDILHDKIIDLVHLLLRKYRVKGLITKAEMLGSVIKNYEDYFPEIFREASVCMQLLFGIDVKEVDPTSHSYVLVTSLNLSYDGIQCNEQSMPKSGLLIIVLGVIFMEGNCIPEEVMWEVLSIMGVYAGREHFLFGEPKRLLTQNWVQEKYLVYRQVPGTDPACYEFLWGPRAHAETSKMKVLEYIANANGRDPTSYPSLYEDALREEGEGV

Row | SMILES | TR-FRET signal [1] | TR-FRET signal [2]
1 | CCCN(CCCNc1c2ccc(Cl)cc2nc2ccc(OC)cc12)Cc1ccc(-c2ccccc2[N+](=O)[O-])o1 [SJ000523019] | −102.8 | –
2 | CCCN(CCCNc1c2ccc(Cl)cc2nc2ccc(OC)cc12)Cc1ccc(-c2cccc(Cl)c2)o1 [SJ000523020] | −169.7 | –
3 | CCCN(CCCNc1c2ccc(Cl)cc2nc2ccc(OC)cc12)Cc1c(Cl)ccc(Cl)c1Cl [SJ000523021] | – | 40
4 | CCCN(CCCNc1c2ccc(Cl)cc2nc2ccc(OC)cc12)Cc1ccc([N+](=O)[O-])o1 [SJ000523022] | −329.7 | –
5 | COc1ccc2nc3cc(Cl)ccc3c(NCCCNCc3ccncc3)c2c1 [SJ000523023] | −127.6 | –
6 | COc1ccc2nc3cc(Cl)ccc3c(NCCCNCc3ccccn3)c2c1 [SJ000523024] | −255.3 | –
7 | COc1ccc2nc3cc(Cl)ccc3c(NCCCNCCCSC)c2c1 [SJ000523025] | −336.9 | –
8 | COc1ccc2nc3cc(Cl)ccc3c(NCCCNCc3ccsc3)c2c1 [SJ000523026] | −353.8 | –
9 | COc1ccc2nc3cc(Cl)ccc3c(NCCCNCCC(C)c3ccccc3)c2c1 (stereo not drawn) [SJ000523027] | −340.3 | –
10 | COc1ccc2nc3cc(Cl)ccc3c(NCCCNCc3ccc(N(C)C)c4ccccc34)c2c1 [SJ000523028] | – | −1.532
11 | COc1ccc2nc3cc(Cl)ccc3c(NCCCNCc3ccc(C)s3)c2c1 [SJ000523029] | −304.8 | –
12 | COc1ccc2nc3cc(Cl)ccc3c(NCCCNCc3ccc(Br)o3)c2c1 [SJ000523030] | −219.4 | –
13 | COc1ccc2nc3cc(Cl)ccc3c(NCCCNCc3ccccc3N)c2c1 [SJ000523031] | – | −57.15
14 | COc1ccc2nc3cc(Cl)ccc3c(NCCCNCc3ccco3)c2c1 [SJ000523032] | −165.3 | –
15 | COc1ccc(CNCCCNc2c3ccc(Cl)cc3nc3ccc(OC)cc23)cc1 [SJ000523033] | −338.9 | –
16 | COc1ccc2nc3cc(Cl)ccc3c(NCCCNCc3ccccc3F)c2c1 [SJ000523034] | −353.8 | –
17 | COc1ccc2nc3cc(Cl)ccc3c(NCCCNCc3ccc(F)cc3)c2c1 [SJ000523035] | −398.2 | –
18 | COc1ccc2nc3cc(Cl)ccc3c(NCCCNCc3ccc(Cl)c([N+](=O)[O-])c3)c2c1 [SJ000523036] | −95.38 | –
19 | COc1ccc2nc3cc(Cl)ccc3c(NCCCNCc3cccc(C#N)c3)c2c1 [SJ000523037] | −333.2 | –
20 | COc1ccc2nc3cc(Cl)ccc3c(NCCCNCc3ccc4ccccc4c3)c2c1 [SJ000523038] | −109.5 | –
21 | CCCN(CCCNc1ccnc2cc(Cl)ccc12)Cc1ccc(-c2ccccc2)cc1 [SJ000523039] | – | 30.23

Row | SMILES | TR-FRET signal [1] | TR-FRET signal [2]
22 | CCCN(CCCNc1ccnc2cc(Cl)ccc12)Cc1ccc2ccccc2c1 [SJ000523040] | – | 32.85
23 | CCCN(CCCNc1ccnc2cc(Cl)ccc12)Cc1cccc(C)c1 [SJ000523041] | – | 28.55
24 | CCCN(CCCNc1ccnc2cc(Cl)ccc12)Cc1ccc(C(=O)OC)cc1 [SJ000523042] | – | 16.72
25 | CCCN(CCCNc1ccnc2cc(Cl)ccc12)Cc1ccc(Cl)cc1Cl [SJ000523043] | – | 12.1
26 | CCCN(CCCNc1ccnc2cc(Cl)ccc12)Cc1ccc(-c2ccccc2[N+](=O)[O-])o1 [SJ000523044] | – | 9.266
27 | CCCN(CCCNc1ccnc2cc(Cl)ccc12)Cc1ccc(-c2cccc(Cl)c2)o1 [SJ000523045] | – | 16.23
28 | CCCN(CCCNc1ccnc2cc(Cl)ccc12)Cc1c(Cl)ccc(Cl)c1Cl [SJ000523046] | – | 17.75
29 | CCCN(CCCNc1ccnc2cc(Cl)ccc12)Cc1ccc([N+](=O)[O-])o1 [SJ000523047] | – | 9.575
30 | CCCCCCN(CCC)CCCNc1ccnc2cc(Cl)ccc12 [SJ000523048] | – | 1.317
31 | Clc1ccc2c(NCCCNCc3ccncc3)ccnc2c1 [SJ000523049] | – | 6.077
32 | Clc1ccc2c(NCCCNCc3ccccn3)ccnc2c1 [SJ000523050] | – | 4.744
33 | CSCCCNCCCNc1ccnc2cc(Cl)ccc12 [SJ000523051] | – | 14.97
34 | Clc1ccc2c(NCCCNCc3ccsc3)ccnc2c1 [SJ000523052] | – | 15.25
35 | CC(CCNCCCNc1ccnc2cc(Cl)ccc12)c1ccccc1 (stereo not drawn) [SJ000523053] | – | 19.01
36 | CCCCCNCCCNc1ccnc2cc(Cl)ccc12 [SJ000523057] | – | 25.82
37 | Cc1c(CNCCCNc2ccnc3cc(Cl)ccc23)c(=O)n(-c2ccccc2)n1C [SJ000523058] | – | 5.584
38 | O=[N+]([O-])c1ccccc1-c1ccc(CNCCCNc2ccnc3cc(Cl)ccc23)o1 [SJ000523068] | – | 21.65
39 | Clc1cccc(-c2ccc(CNCCCNc3ccnc4cc(Cl)ccc34)o2)c1 [SJ000523069] | – | 33.51
40 | CCCN(CCCNc1ccnc2cc(C(F)(F)F)ccc12)Cc1ccc(F)cc1 [SJ000523070] | – | 26.44
41 | CCCN(CCCNc1ccnc2cc(C(F)(F)F)ccc12)Cc1ccccc1[N+](=O)[O-] [SJ000523071] | – | −7.745
42 | CCCN(CCCNc1ccnc2cc(C(F)(F)F)ccc12)Cc1ccccc1OC [SJ000523072] | – | 32.61

Row | SMILES | TR-FRET signal [1] | TR-FRET signal [2]
43 | CCCN(CCCNc1ccnc2cc(C(F)(F)F)ccc12)Cc1ccccc1C(=O)O [SJ000523073] | – | 16.86
44 | CCCN(CCCNc1ccnc2cc(C(F)(F)F)ccc12)Cc1cccc2ccccc12 [SJ000523074] | – | 14.32
45 | CCCN(CCCNc1ccnc2cc(C(F)(F)F)ccc12)Cc1ccc2ccccc2c1 [SJ000523075] | – | 11.39
46 | CCCN(CCCNc1ccnc2cc(C(F)(F)F)ccc12)Cc1cccc(C)c1 [SJ000523076] | – | 20.17
47 | CCCN(CCCNc1ccnc2cc(C(F)(F)F)ccc12)Cc1ccc(N(C)C)cc1 [SJ000523077] | – | 23.71
48 | CCCN(CCCNc1ccnc2cc(C(F)(F)F)ccc12)Cc1ccc(Cl)cc1Cl [SJ000523078] | – | 3.83
49 | CCCN(CCCNc1ccnc2cc(C(F)(F)F)ccc12)Cc1ccc(OC)c(OC)c1 [SJ000523079] | – | 14.66
50 | CCCN(CCCNc1ccnc2cc(C(F)(F)F)ccc12)CCCc1ccccc1 [SJ000523080] | – | 28
51 | CCCN(CCCNc1ccnc2cc(C(F)(F)F)ccc12)CC(C)CC (stereo not drawn) [SJ000523081] | – | 22.28
52 | CCCN(CCCNc1ccnc2cc(C(F)(F)F)ccc12)Cc1cc(C)ccc1C [SJ000523082] | – | 21.74
53 | CCCCCCN(CCC)CCCNc1ccnc2cc(C(F)(F)F)ccc12 [SJ000523083] | – | 34.95
54 | Cc1cc(C)c(CN2CCC(Nc3ccnc4cc(Cl)ccc34)CC2)c(C)c1 [SJ000523084] | 11.75 | –
55 | Clc1ccc2c(NC3CCN(CC4CCCCC4)CC3)ccnc2c1 [SJ000523085] | 15.43 | –
56 | CCC(CC)CN1CCC(Nc2ccnc3cc(Cl)ccc23)CC1 [SJ000523086] | 9.754 | –
57 | Clc1ccc2c(NC3CCN(Cc4ccc5c(c4)OCO5)CC3)ccnc2c1 [SJ000523087] | 7.643 | –
58 | CCCCCN1CCC(Nc2ccnc3cc(Cl)ccc23)CC1 [SJ000523088] | 12.17 | –
59 | Fc1ccc(CN2CCC(Nc3ccnc4cc(Cl)ccc34)CC2)cc1F [SJ000523089] | −1.958 | –
60 | COc1ccc(CN2CCC(Nc3ccnc4cc(Cl)ccc34)CC2)cc1 [SJ000523090] | 23.72 | –
61 | Fc1ccccc1CN1CCC(Nc2ccnc3cc(Cl)ccc23)CC1 [SJ000523091] | −0.9977 | –
62 | Fc1cccc(CN2CCC(Nc3ccnc4cc(Cl)ccc34)CC2)c1 [SJ000523092] | 6.622 | –
63 | Fc1ccc(CN2CCC(Nc3ccnc4cc(Cl)ccc34)CC2)cc1 [SJ000523093] | 10.66 | –

Row | SMILES | TR-FRET signal [1] | TR-FRET signal [2]
64 | O=[N+]([O-])c1ccccc1CN1CCC(Nc2ccnc3cc(Cl)ccc23)CC1 [SJ000523094] | −2.026 | –
65 | O=[N+]([O-])c1cccc(CN2CCC(Nc3ccnc4cc(Cl)ccc34)CC2)c1 [SJ000523095] | 0.8927 | –
66 | O=[N+]([O-])c1ccc(CN2CCC(Nc3ccnc4cc(Cl)ccc34)CC2)cc1 [SJ000523096] | −4.954 | –
67 | COc1ccccc1CN1CCC(Nc2ccnc3cc(Cl)ccc23)CC1 [SJ000523097] | 8.596 | –
68 | O=C(O)c1ccccc1CN1CCC(Nc2ccnc3cc(Cl)ccc23)CC1 [SJ000523098] | −2.194 | –
69 | Clc1ccc2c(NC3CCN(Cc4cccc5ccccc45)CC3)ccnc2c1 [SJ000523099] | −6.179 | –
70 | Clc1ccc2c(NC3CCN(Cc4ccc5ccccc5c4)CC3)ccnc2c1 [SJ000523100] | 4.171 | –
71 | Cc1cccc(CN2CCC(Nc3ccnc4cc(Cl)ccc34)CC2)c1 [SJ000523101] | 18.54 | –
72 | CN(C)c1ccc(CN2CCC(Nc3ccnc4cc(Cl)ccc34)CC2)cc1 [SJ000523102] | 13.09 | –
73 | COc1ccc(CN2CCC(Nc3ccnc4cc(Cl)ccc34)CC2)cc1OC [SJ000523103] | 11.75 | –
74 | Clc1ccc2c(NC3CCN(CCCc4ccccc4)CC3)ccnc2c1 [SJ000523104] | 20.65 | –
75 | CCC(C)CN1CCC(Nc2ccnc3cc(Cl)ccc23)CC1 (stereo not drawn) [SJ000523105] | 11.19 | –
76 | Cc1ccc(C)c(CN2CCC(Nc3ccnc4cc(Cl)ccc34)CC2)c1 [SJ000523106] | 18.68 | –
77 | COc1cccc(CN2CCC(Nc3ccnc4cc(Cl)ccc34)CC2)c1 [SJ000523107] | 3.149 | –
78 | CCCCCCN1CCC(Nc2ccnc3cc(Cl)ccc23)CC1 [SJ000523108] | 29.3 | –
79 | CCCN(CCCNc1c2ccc(Cl)cc2nc2ccc(OC)cc12)CC1CCOC1 (stereo not drawn) [SJ000575149] | – | −35.94
80 | CCCN(CCCNc1c2ccc(Cl)cc2nc2ccc(OC)cc12)CC(C)C [SJ000575150] | – | −21.37
81 | CCCN(CCCCCC(=O)OC)CCCNc1c2ccc(Cl)cc2nc2ccc(OC)cc12 [SJ000575151] | – | −37.41
